Experimental data published in the supplement of paper PMC10307832.

What was measured:
Experiment in all cases: relative viability (nuclei count vs DMSO), 5 days (fraction); higher = more cells survive
KIN001-266 + Luminespib = compound: CCN1CCC(CC1)N2C=C(N=N2)CNC3=CC4=C(C(=CN=C4C(=C3)Cl)C#N)NC5=CC(=C(C=C5)F)Cl [KIN001-266] + CCNC(=O)c1noc(-c2cc(C(C)C)c(O)cc2O)c1-c1ccc(CN2CCOCC2)cc1 [Luminespib] (partner 0.01 µM)
How it was run: (§1)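 Cells from lung cancer lines were seeded into 1536-well plates and, one day later, dosed by pin tool. Treatments were either a single drug or a fixed dose of an anchor drug with five library-drug doses (not always all listed) in √10 steps. After 5 days, nuclei were stained in a one-step fixation (final 0.05% Triton X-100, 1% formaldehyde, 1 ug/ml Hoechst) and counted on 4× images, and relative viability is the treated-to-vehicle nuclei ratio, as the median of duplicate plates.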

KIN001-266 + Foretinib = compound: CCN1CCC(CC1)N2C=C(N=N2)CNC3=CC4=C(C(=CN=C4C(=C3)Cl)C#N)NC5=CC(=C(C=C5)F)Cl [KIN001-266] + COc1cc2c(Oc3ccc(NC(=O)C4(C(=O)Nc5ccc(F)cc5)CC4)cc3F)ccnc2cc1OCCCN1CCOCC1 [Foretinib] (partner 0.25 µM)
How it was run: as §1

KIN001-266 + Dasatinib = compound: CCN1CCC(CC1)N2C=C(N=N2)CNC3=CC4=C(C(=CN=C4C(=C3)Cl)C#N)NC5=CC(=C(C=C5)F)Cl [KIN001-266] + Cc1nc(Nc2ncc(C(=O)Nc3c(C)cccc3Cl)s2)cc(N2CCN(CCO)CC2)n1 [Dasatinib] (partner 0.075 µM)
How it was run: as §1

KIN001-266 + Decitabine = compound: CCN1CCC(CC1)N2C=C(N=N2)CNC3=CC4=C(C(=CN=C4C(=C3)Cl)C#N)NC5=CC(=C(C=C5)F)Cl [KIN001-266] + Nc1ncn([C@H]2C[C@H](O)[C@@H](CO)O2)c(=O)n1 [Decitabine] (partner 2 µM)
How it was run: as §1

Cell Line | relative viability (KIN001-266 + Luminespib; first compound 0.08 µM) | relative viability (KIN001-266 + Luminespib; first compound 0.253 µM) | relative viability (KIN001-266 + Luminespib; first compound 0.8 µM) | relative viability (KIN001-266 + Luminespib; first compound 2.53 µM) | relative viability (KIN001-266 + Luminespib; first compound 8 µM) | relative viability (KIN001-266 + Foretinib; first compound 0.08 µM) | relative viability (KIN001-266 + Foretinib; first compound 0.253 µM) | relative viability (KIN001-266 + Foretinib; first compound 0.8 µM) | relative viability (KIN001-266 + Foretinib; first compound 2.53 µM) | relative viability (KIN001-266 + Foretinib; first compound 8 µM) | relative viability (KIN001-266 + Dasatinib; first compound 0.08 µM) | relative viability (KIN001-266 + Dasatinib; first compound 0.253 µM) | relative viability (KIN001-266 + Dasatinib; first compound 0.8 µM) | relative viability (KIN001-266 + Dasatinib; first compound 2.53 µM) | relative viability (KIN001-266 + Dasatinib; first compound 8 µM) | relative viability (KIN001-266 + Decitabine; first compound 0.08 µM) | relative viability (KIN001-266 + Decitabine; first compound 0.253 µM) | relative viability (KIN001-266 + Decitabine; first compound 0.8 µM) | relative viability (KIN001-266 + Decitabine; first compound 2.53 µM) | relative viability (KIN001-266 + Decitabine; first compound 8 µM)
HARA | 0.704 | 0.718 | 0.395 | 0.878 | 0.307 | 0.814 | 0.884 | 0.878 | 0.858 | 0.821 | 0.26 | 0.256 | 0.231 | 0.264 | 0.281 | 0.416 | 0.616 | 0.635 | 0.57 | 0.439
HCC-15 | 0.232 | 0.475 | 0.241 | 0.248 | 0.136 | 0.913 | 0.964 | 0.886 | 0.817 | 0.707 | 0.683 | 0.592 | 0.566 | 0.596 | 0.448 | 0.679 | 0.691 | 0.539 | 0.497 | 0.488
HCC-44 | 1.02 | 1.04 | 1.1 | 1.01 | 1.19 |  |  |  |  |  |  |  |  |  |  | 0.977 | 0.964 | 1.01 | 0.847 | 0.99
HCC-78 |  |  |  |  |  | 0.529 | 0.588 |  | 0.575 | 0.527 | 0.566 | 0.421 |  | 0.361 | 0.38 | 0.813 | 0.684 | 0.675 | 0.759 | 0.715
HCC-366 |  |  |  |  |  | 0.961 | 0.955 | 0.916 | 0.905 | 0.851 | 0.783 | 0.591 | 0.627 | 0.656 | 0.656 | 0.359 | 0.362 | 0.221 | 0.346 | 0.317
HCC-827 | 0.659 | 0.38 | 0.509 | 0.841 | 0.362 | 1.04 | 1.09 | 0.944 | 0.907 | 0.809 | 0.349 | 0.317 |  | 0.275 | 0.229 | 0.327 | 0.382 | 0.153 | 0.28 | 0.268
HOP-62 | 0.906 | 0.923 | 0.876 | 0.944 | 0.787 | 0.96 | 1.11 | 1.15 | 1.13 | 1.13 | 0.662 | 0.686 | 0.601 | 0.675 | 0.55 | 0.224 | 0.215 | 0.287 | 0.204 | 0.217
IA-LM |  |  |  |  |  | 1.03 | 1.17 | 1.41 | 1.19 | 0.891 |  |  |  |  |  |  |  |  |  | 
LC-2-ad | 0.943 | 1.19 | 1.13 | 1.06 | 0.931 | 0.964 | 1 | 0.904 | 0.972 | 0.787 | 0.661 | 0.533 | 0.626 | 0.8 | 0.632 | 0.802 | 0.794 | 0.676 | 0.733 | 0.771
LCLC-97TM1 | 0.953 | 0.77 | 0.643 | 0.603 | 0.24 | 0.983 | 0.914 | 0.903 | 0.888 | 0.909 | 0.905 | 0.812 | 0.825 | 0.746 | 0.848 | 0.22 | 0.226 | 0.226 |  | 0.168
LCLC-103H | 0.96 | 1.01 | 0.95 | 0.923 | 0.695 | 0.837 | 0.716 | 0.987 | 0.772 | 0.726 | 0.538 | 0.494 | 0.436 | 0.519 | 0.452 | 0.702 | 0.742 | 0.636 | 0.689 | 0.706
LK-2 | 0.204 | 0.16 | 0.191 | 0.187 | 0.168 | 1.12 | 1.31 | 1.2 | 1.03 | 1.28 | 0.361 | 0.256 | 0.237 | 0.269 | 0.22 | 0.384 | 0.298 | 0.309 | 0.318 | 0.41
NCI-H522 | 1.09 | 1.19 | 0.99 | 0.912 | 1.05 |  |  |  |  |  | 0.919 | 0.918 | 0.853 | 0.862 | 0.934 | 0.651 | 0.609 | 0.777 | 0.702 | 0.678
NCI-H1299 |  |  |  |  |  | 1.06 | 1.1 | 1.05 | 0.994 | 0.964 |  |  |  |  |  |  |  |  |  | 
NCI-H1563 | 0.496 | 0.498 | 0.534 | 0.602 | 0.524 | 0.925 | 0.862 | 0.941 | 0.985 | 0.904 | 0.468 | 0.524 | 0.447 | 0.458 | 0.553 |  |  |  |  | 
NCI-H1648 |  |  |  |  |  |  |  |  |  |  |  |  |  |  |  | 0.487 | 0.497 | 0.501 | 0.507 | 0.517
NCI-H1703 |  |  |  |  |  | 0.367 |  | 0.37 | 0.359 | 0.366 |  |  |  |  |  |  |  |  |  | 
NCI-H1792 | 0.414 | 0.381 | 0.403 | 0.628 | 0.486 |  |  |  |  |  | 0.771 | 0.787 | 0.753 | 0.762 | 0.906 | 0.543 | 0.562 | 0.508 | 0.522 | 0.463
NCI-H2228 | 0.136 | 0.13 | 0.145 | 0.172 | 0.112 | 0.76 | 0.733 | 0.82 | 0.89 | 0.602 | 0.544 | 0.538 | 0.511 | 0.434 | 0.451 |  |  |  |  | 
